Test results from the supplement of paper PMC11208160.
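Note: IS621 bridge recombinase in Escherichia coli cells against a fixed T5 target plasmid.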

Assay: recombinant UMI read abundance after kanamycin selection (control-corrected) (log10(CPM+1)); higher = more efficient recombination; extreme values may be limits of the assay; sequences stand for … in AGTGCAGAGAAAATCGGCCAGTTTTCTCTGCCTGCAGTCCGCATGCCGTGGGACCCCTTGGGTTCTAACCTGTTGCCTAGATTTATGCAGCGGACTGCCTTTCTCCCAAAGTGATAAACCGG…AGGTTGGTTTCACT; site = the 11-nt donor
Outline: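 For the IS621 bridge recombinase, a pooled Escherichia coli screen tested donor and donor-binding-loop pairs. Cells received the pair library together with a target plasmid encoding a fixed target and T7-inducible recombinase, then went onto IPTG (0.07 mM) plus kanamycin or unselected plates in duplicate. After PCR across the donor–target junction and sequencing, recombinant UMI counts were normalized to CPM, averaged, and scaled by control-derived factors. Each value is given as log10(CPM+1).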
For “ACATTGTCATGGACCGGTTTTCCCGGTAATCCGTATTTGCA (site ACATTGTCTTG)”, the “recombinant UMI read abundance (log10)” value was 2.75.
In the case of “ACCAAGTCATGGACCGGTTTTCCCGGTAATCCGTATTTGTG (site ACCAAGTCTCA)”, the “recombinant UMI read abundance (log10)” value is reported as 2.15.
With “ACCAATTCATGGACCGGTTTTCCCGGTAATCCGTATTTGCT (site ACCAATTCTAG)” the “recombinant UMI read abundance (log10)” value was 2.42.
With “ACCACGACATGGACCGGTTTTCCCGGTAATCCGTATTTGAC (site ACCACGACTGT)” the “recombinant UMI read abundance (log10)” value was 2.72.
With “ACCAGCCCATGGACCGGTTTTCCCGGTAATCCGTATTTGCT (site ACCAGCCCTAG)” the “recombinant UMI read abundance (log10)” value was 0.0684.
With “ACCCCAACATGGACCGGTTTTCCCGGTAATCCGTATTTGAC (site ACCCCAACTGT)” the “recombinant UMI read abundance (log10)” value was 2.49.
With “ACCCGTCCATGGACCGGTTTTCCCGGTAATCCGTATTTGAT (site AACCGTCCTAT)” the “recombinant UMI read abundance (log10)” value was 0.00657.
For “ACCCGTCCATGGACCGGTTTTCCCGGTAATCCGTATTTGAT (site ACCCGTCCTAT)”, the “recombinant UMI read abundance (log10)” value was 0.224.
For “ACCCGTCCATGGACCGGTTTTCCCGGTAATCCGTATTTGAT (site AGCCGTCCTAT)”, the “recombinant UMI read abundance (log10)” value was 0.0209.
In the case of “ACCCGTCCATGGACCGGTTTTCCCGGTAATCCGTATTTGAT (site ATCCGTCCTAT)”, the “recombinant UMI read abundance (log10)” value is reported as 0.015.
In the case of “ACCCGTCCATGGACCGGTTTTCCCGGTAATCCGTATTTGTA (site ACCCGTCCTTA)”, the “recombinant UMI read abundance (log10)” value is reported as 0.613.
For “ACCGTCTCATGGACCGGTTTTCCCGGTAATCCGTATTTGCA (site ACAGTATCTTG)”, the “recombinant UMI read abundance (log10)” value was 0.902.
With “ACCGTCTCATGGACCGGTTTTCCCGGTAATCCGTATTTGCA (site ACCGTCTCTTG)” the “recombinant UMI read abundance (log10)” value was 2.85.
In the case of “ACCGTGACATGGACCGGTTTTCCCGGTAATCCGTATTTGCA (site ACCGTGACTTG)”, the “recombinant UMI read abundance (log10)” value is reported as 2.4.
With “ACCTAGACATGGACCGGTTTTCCCGGTAATCCGTATTTGGG (site AACTAGACTCC)” the “recombinant UMI read abundance (log10)” value was 0.0442.
For “ACCTAGACATGGACCGGTTTTCCCGGTAATCCGTATTTGGG (site ACATAGACTCC)”, the “recombinant UMI read abundance (log10)” value was 0.00696.
In the case of “ACCTAGACATGGACCGGTTTTCCCGGTAATCCGTATTTGGG (site ACCAAGACTCC)”, the “recombinant UMI read abundance (log10)” value is reported as 0.00495.
In the case of “ACCTAGACATGGACCGGTTTTCCCGGTAATCCGTATTTGGG (site ACCCAGACTCC)”, the “recombinant UMI read abundance (log10)” value is reported as 0.00611.
For “ACCTAGACATGGACCGGTTTTCCCGGTAATCCGTATTTGGG (site ACCGAGACTCC)”, the “recombinant UMI read abundance (log10)” value was 0.
With “ACCTAGACATGGACCGGTTTTCCCGGTAATCCGTATTTGGG (site ACCTAAACTCC)” the “recombinant UMI read abundance (log10)” value was 0.
In the case of “ACCTAGACATGGACCGGTTTTCCCGGTAATCCGTATTTGGG (site ACCTACACTCC)”, the “recombinant UMI read abundance (log10)” value is reported as 0.0139.
For “ACCTAGACATGGACCGGTTTTCCCGGTAATCCGTATTTGGG (site ACCTAGACTAC)”, the “recombinant UMI read abundance (log10)” value was 0.0239.
In the case of “ACCTAGACATGGACCGGTTTTCCCGGTAATCCGTATTTGGG (site ACCTAGACTCA)”, the “recombinant UMI read abundance (log10)” value is reported as 0.0191.
With “ACCTAGACATGGACCGGTTTTCCCGGTAATCCGTATTTGGG (site ACCTAGACTCC)” the “recombinant UMI read abundance (log10)” value was 0.0334.
For “ACCTAGACATGGACCGGTTTTCCCGGTAATCCGTATTTGGG (site ACCTAGACTCG)”, the “recombinant UMI read abundance (log10)” value was 0.634.
With “ACCTAGACATGGACCGGTTTTCCCGGTAATCCGTATTTGGG (site ACCTAGACTCT)” the “recombinant UMI read abundance (log10)” value was 0.00788.
In the case of “ACCTAGACATGGACCGGTTTTCCCGGTAATCCGTATTTGGG (site ACCTAGACTGC)”, the “recombinant UMI read abundance (log10)” value is reported as 0.00778.
With “ACCTAGACATGGACCGGTTTTCCCGGTAATCCGTATTTGGG (site ACCTAGACTTC)” the “recombinant UMI read abundance (log10)” value was 0.00986.
With “ACCTAGACATGGACCGGTTTTCCCGGTAATCCGTATTTGGG (site ACCTAGCCTCC)” the “recombinant UMI read abundance (log10)” value was 0.0119.
For “ACCTAGACATGGACCGGTTTTCCCGGTAATCCGTATTTGGG (site ACCTAGGCTCC)”, the “recombinant UMI read abundance (log10)” value was 0.0977.
For “ACCTAGACATGGACCGGTTTTCCCGGTAATCCGTATTTGGG (site ACCTAGTCTCC)”, the “recombinant UMI read abundance (log10)” value was 0.0195.
For “ACCTAGACATGGACCGGTTTTCCCGGTAATCCGTATTTGGG (site ACCTATACTCC)”, the “recombinant UMI read abundance (log10)” value was 0.333.
For “ACCTAGACATGGACCGGTTTTCCCGGTAATCCGTATTTGGG (site ACCTCGACTCC)”, the “recombinant UMI read abundance (log10)” value was 0.00246.
In the case of “ACCTAGACATGGACCGGTTTTCCCGGTAATCCGTATTTGGG (site ACCTGGACTCC)”, the “recombinant UMI read abundance (log10)” value is reported as 0.0143.
With “ACCTAGACATGGACCGGTTTTCCCGGTAATCCGTATTTGGG (site ACCTTGACTCC)” the “recombinant UMI read abundance (log10)” value was 0.0253.
With “ACCTAGACATGGACCGGTTTTCCCGGTAATCCGTATTTGGG (site ACGTAGACTCC)” the “recombinant UMI read abundance (log10)” value was 0.0154.
In the case of “ACCTAGACATGGACCGGTTTTCCCGGTAATCCGTATTTGGG (site ACTTAGACTCC)”, the “recombinant UMI read abundance (log10)” value is reported as 0.0151.
In the case of “ACCTAGACATGGACCGGTTTTCCCGGTAATCCGTATTTGGG (site AGCTAGACTCC)”, the “recombinant UMI read abundance (log10)” value is reported as 0.0336.
